Four compounds from BindingDB's records for PubMed 32539378 (Shandong University, 2020) can be followed below.

Experiment [1] has as its target Angiotensin-converting enzyme 2 (Homo sapiens, UniProt Q9BYF1). Put plainly: Inhibition of SARS-COV2 S-RBD binding to human ACE2 expressed in HEK293T cells by NanoLuc luciferase assay.
For a further experiment, the target named is Spike glycoprotein (Severe acute respiratory syndrome coronavirus 2, UniProt P0DTC2). Put plainly: Inhibition of SARS-COV2 spike protein mediated infection of human ACE2 expressing cells at 50 uM […].
The nature of experiment [2]: Inhibition of SARS-COV2 spike protein mediated infection of human ACE2 expressing cells at 50 uM […].

Structures are written as SMILES.

Chain of Angiotensin-converting enzyme 2 (Q9BYF1 whole entry): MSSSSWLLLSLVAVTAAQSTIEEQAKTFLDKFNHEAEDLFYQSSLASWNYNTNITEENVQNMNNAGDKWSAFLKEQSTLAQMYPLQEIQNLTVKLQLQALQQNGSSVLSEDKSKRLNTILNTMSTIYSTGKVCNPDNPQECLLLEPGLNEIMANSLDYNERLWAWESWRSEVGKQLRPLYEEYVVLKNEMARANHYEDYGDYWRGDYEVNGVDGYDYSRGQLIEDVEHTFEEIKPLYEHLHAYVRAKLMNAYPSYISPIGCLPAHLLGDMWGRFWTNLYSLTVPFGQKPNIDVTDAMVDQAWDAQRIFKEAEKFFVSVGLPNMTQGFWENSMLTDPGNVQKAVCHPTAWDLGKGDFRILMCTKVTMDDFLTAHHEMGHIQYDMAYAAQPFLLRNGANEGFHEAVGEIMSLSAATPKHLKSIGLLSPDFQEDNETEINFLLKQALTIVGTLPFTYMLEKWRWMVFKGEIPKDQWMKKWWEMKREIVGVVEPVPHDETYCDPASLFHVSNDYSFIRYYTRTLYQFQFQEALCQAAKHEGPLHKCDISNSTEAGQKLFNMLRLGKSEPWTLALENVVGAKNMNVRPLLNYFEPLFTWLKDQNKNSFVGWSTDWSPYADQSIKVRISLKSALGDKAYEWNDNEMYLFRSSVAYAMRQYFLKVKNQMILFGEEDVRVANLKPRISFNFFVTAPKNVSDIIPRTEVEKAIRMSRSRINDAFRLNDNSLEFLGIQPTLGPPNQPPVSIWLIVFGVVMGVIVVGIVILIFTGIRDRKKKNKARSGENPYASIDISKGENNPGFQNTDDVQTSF

`COc1cc(C)nc2c(OC)cc(Cc3cnc(N)nc3N)cc12`: the IC50 in experiment [1] is 700 nM.

On Spike glycoprotein, `COc1cc(Cc2cnc(N)nc2N)cc2c(N(C)C)cc(C)nc12` registered an IC50 of 600 nM.

Compound `O=c1cc(-c2ccc(O)c(O)c2)oc2cc(O)cc(O)c12` [2-(3,4-dihydroxyphenyl)-5,7-dihydroxy-4H-chromen-4-one] registered an IC50 in experiment [2] of 10600 nM.

`O=C(OC[C@H]1O[C@@H](OC(=O)c2cc(O)c(O)c(O)c2)[C@H](OC(=O)c2cc(O)c(O)c(O)c2)[C@H](OC(=O)c2cc(O)c(O)c(O)c2)[C@@H]1O)c1cc(O)c(O)c(O)c1` [med.21724, Compound 2] gave an IC50 in experiment [2] of 4500 nM.
